Assay results: ChEMBL document CHEMBL6134781, “In vitro identification of oridonin hybrids as potential anti-TNBC agents inducing cell cycle arrest and apoptosis by regulation of p21, γH2AX and cleaved PARP” (RSC Med Chem, 2024)
Blank lines part the entries; values can stand above or below the molecule they belong to.

How the values were obtained:
MDA-MB-231 = assay: Cytotoxicity against human MDA-MB-231 cells assessed as inhibition of cell viability incubated for 72 hrs by SRB assay; type: functional, cell-based; conditions: MDA-MB-231, 72 h
HCC1806 = assay: Cytotoxicity against human HCC1806 cells assessed as inhibition of cell viability incubated for 72 hrs by SRB assay; type: functional, cell-based; conditions: HCC1806, 72 h
[1] = Stability in human plasma assessed as half life at 100 uM by LC-MS/MS analysis; type: ADME, cell-free

SMILES: C=C1C(=O)[C@]23[C@H](OC(=O)Cc4cc(OC)c(OC)c(OC)c4)[C@H]1CC[C@H]2[C@]12C=CCC(C)(C)[C@H]1[C@H](O)[C@@]3(O)OC2
IC50 (MDA-MB-231): > 10000 nM
IC50 (HCC1806): > 10000 nM

SMILES: C=C1C(=O)[C@@]23C(=O)[C@@H]4OC[C@]5(C=CCC(C)(C)[C@@H]45)[C@@H]2CC[C@@H]1[C@H]3OC(=O)c1ccc(N(CCCl)CCCl)cc1
IC50 (MDA-MB-231): 2210 nM
IC50 (HCC1806): 3020 nM

SMILES: C=C1C(=O)[C@@]23C(=O)[C@@H]4OC[C@]5(C(=O)CCC(C)(C)[C@@H]45)[C@@H]2CC[C@@H]1[C@H]3OC(=O)Cc1cc(OC)c(OC)c(OC)c1
IC50 (MDA-MB-231): 2600 nM
IC50 (HCC1806): 5070 nM

SMILES: C=C1C(=O)[C@]23[C@H](OC(=O)Cc4ccc(OC)c(OC)c4)[C@H]1CC[C@H]2[C@@]12CO[C@]3(O)[C@@H](O)[C@@H]1C(C)(C)CCC2=O
IC50 (MDA-MB-231): 8430 nM
IC50 (HCC1806): > 10000 nM

SMILES: C=C1C(=O)[C@@]23C(=O)[C@@H]4OC[C@]5(C(=O)CCC(C)(C)[C@@H]45)[C@@H]2CC[C@@H]1[C@H]3OC(=O)Cc1ccc(OC)cc1
IC50 (MDA-MB-231): 3060 nM
IC50 (HCC1806): 4600 nM

SMILES: C=C1C(=O)[C@]23[C@H](OC(=O)c4ccc(N(CCCl)CCCl)cc4)[C@H]1CC[C@H]2[C@@]12CO[C@]3(O)[C@@H](O)[C@@H]1C(C)(C)CCC2=O
IC50 (MDA-MB-231): 1720 nM
IC50 (HCC1806): 3640 nM

SMILES: C=C1C(=O)[C@@]23C(=O)[C@@H]4OC[C@]5(C(=O)CCC(C)(C)[C@@H]45)[C@@H]2CC[C@@H]1[C@H]3OC(=O)Cc1ccc(N(CCCl)CCCl)cc1
IC50 (MDA-MB-231): 11400 nM
IC50 (HCC1806): > 10000 nM

SMILES: C=C1C(=O)[C@]23[C@H](OC(=O)Cc4ccc(OC)cc4)[C@H]1CC[C@H]2[C@]12C=CCC(C)(C)[C@H]1[C@H](O)[C@@]3(O)OC2
IC50 (MDA-MB-231): > 10000 nM
IC50 (HCC1806): > 10000 nM

SMILES: C=C1C(=O)[C@]23[C@H](OC(=O)Cc4ccccc4Br)[C@H]1CC[C@H]2[C@@]12CO[C@]3(O)[C@@H](O)[C@@H]1C(C)(C)CCC2=O
IC50 (MDA-MB-231): 3580 nM
IC50 (HCC1806): 7120 nM

half-life at 100 µM [1]: 1.45 h
SMILES: C=C1C(=O)[C@]23[C@H](O)[C@H]1CC[C@H]2[C@@]12CO[C@]3(O)[C@@H](O)[C@@H]1C(C)(C)CC[C@@H]2O [ORIDONIN]
IC50 (MDA-MB-231): 5310 nM
IC50 (HCC1806): 12600 nM

SMILES: C=C1C(=O)[C@]23[C@H](OC(=O)c4ccc(N(CCCl)CCCl)cc4)[C@H]1CC[C@H]2[C@@]12CO[C@]3(O)[C@@H](O)[C@@H]1C(C)(C)CC[C@@H]2O
IC50 (MDA-MB-231): 1670 nM
IC50 (HCC1806): 1320 nM

SMILES: C=C1C(=O)[C@@]23C(=O)[C@@H]4OC[C@]5(C=CCC(C)(C)[C@@H]45)[C@@H]2CC[C@@H]1[C@H]3OC(=O)Cc1cc(OC)c(OC)c(OC)c1
IC50 (MDA-MB-231): 3820 nM
IC50 (HCC1806): 5540 nM

SMILES: C=C1C(=O)[C@]23[C@H](OC(=O)C45CC6CC(CC(C6)C4)C5)[C@H]1CC[C@H]2[C@]12C=CCC(C)(C)[C@H]1[C@H](O)[C@@]3(O)OC2
IC50 (MDA-MB-231): 2420 nM
IC50 (HCC1806): 2610 nM

SMILES: C=C1C(=O)[C@]23[C@H](OC(=O)Cc4ccc(N(CCCl)CCCl)cc4)[C@H]1CC[C@H]2[C@@]12CO[C@]3(O)[C@@H](O)[C@@H]1C(C)(C)CCC2=O
IC50 (MDA-MB-231): 7290 nM
IC50 (HCC1806): > 10000 nM

SMILES: C=C1C(=O)[C@]23[C@H](O)[C@H]1CC[C@H]2[C@]12C=CCC(C)(C)[C@H]1[C@H](O)[C@@]3(O)OC2
IC50 (MDA-MB-231): 870 nM
IC50 (HCC1806): 910 nM

SMILES: C=C1C(=O)[C@@]23C(=O)[C@@H]4OC[C@]5(C(=O)CCC(C)(C)[C@@H]45)[C@@H]2CC[C@@H]1[C@H]3OC(=O)C12CC3CC(CC(C3)C1)C2
IC50 (MDA-MB-231): 3260 nM
IC50 (HCC1806): 5590 nM

SMILES: C=C1C(=O)[C@]23[C@H](OC(=O)Cc4ccc(OC)cc4)[C@H]1CC[C@H]2[C@@]12CO[C@]3(O)[C@@H](O)[C@@H]1C(C)(C)CCC2=O
IC50 (MDA-MB-231): > 10000 nM
IC50 (HCC1806): > 10000 nM

SMILES: C=C1C(=O)[C@@]23C(=O)[C@@H]4OC[C@]5(C=CCC(C)(C)[C@@H]45)[C@@H]2CC[C@@H]1[C@H]3OC(=O)C12CC3CC(CC(C3)C1)C2
IC50 (MDA-MB-231): 3660 nM
IC50 (HCC1806): 5510 nM

SMILES: C=C1C(=O)[C@@]23C(=O)[C@@H]4OC[C@@]5([C@H]4C(C)(C)CC[C@@H]5O)[C@@H]2CC[C@@H]1[C@H]3OC(=O)C12CC3CC(CC(C3)C1)C2
IC50 (MDA-MB-231): 1500 nM
IC50 (HCC1806): 2130 nM

SMILES: C=C1C(=O)[C@@]23C(=O)[C@@H]4OC[C@]5(C(=O)CCC(C)(C)[C@@H]45)[C@@H]2CC[C@@H]1[C@H]3OC(=O)Cc1ccccc1Br
IC50 (MDA-MB-231): > 10000 nM
IC50 (HCC1806): > 10000 nM

SMILES: C=C1C(=O)[C@@]23C(=O)[C@@H]4OC[C@@]5([C@H]4C(C)(C)CC[C@@H]5O)[C@@H]2CC[C@@H]1[C@H]3OC(=O)c1ccc(N(CCCl)CCCl)cc1
IC50 (MDA-MB-231): 1830 nM
IC50 (HCC1806): 1610 nM

SMILES: C=C1C(=O)[C@]23[C@H](O)[C@H]1CC[C@H]2[C@@]12CO[C@]3(O)[C@@H](O)[C@@H]1C(C)(C)CCC2=O
IC50 (MDA-MB-231): 2070 nM
IC50 (HCC1806): 3560 nM

SMILES: C=C1C(=O)[C@@]23C(=O)[C@@H]4OC[C@]5(C(=O)CCC(C)(C)[C@@H]45)[C@@H]2CC[C@@H]1[C@H]3OC(=O)c1ccc(N(CCCl)CCCl)cc1
IC50 (MDA-MB-231): 5700 nM
IC50 (HCC1806): > 10000 nM

SMILES: C=C1C(=O)[C@@]23C(=O)[C@@H]4OC[C@]5(C=CCC(C)(C)[C@@H]45)[C@@H]2CC[C@@H]1[C@H]3O
IC50 (MDA-MB-231): 2780 nM
IC50 (HCC1806): 4010 nM

SMILES: C=C1C(=O)[C@]23[C@H](OC(=O)/C=C/c4ccc(N(C)C)cc4)[C@H]1CC[C@H]2[C@@]12CO[C@]3(O)[C@@H](O)[C@@H]1C(C)(C)CCC2=O
IC50 (MDA-MB-231): 1790 nM
IC50 (HCC1806): 2770 nM

SMILES: C=C1C(=O)[C@]23[C@H](O)[C@H]1CC[C@H]2[C@@]12CO[C@@]3(O)[C@@H](O)[C@@H]1C(C)(C)CC[C@@H]2OC(C)=O
IC50 (MDA-MB-231): 2490 nM
IC50 (HCC1806): 2680 nM

SMILES: C=C1C(=O)[C@]23[C@H](OC(=O)c4ccc(N(CCCl)CCCl)cc4)[C@H]1CC[C@H]2[C@]12C=CCC(C)(C)[C@H]1[C@H](O)[C@@]3(O)OC2
IC50 (MDA-MB-231): 1090 nM
IC50 (HCC1806): 1400 nM

SMILES: C=C1C(=O)[C@@]23C(=O)[C@@H]4OC[C@]5(C(=O)CCC(C)(C)[C@@H]45)[C@@H]2CC[C@@H]1[C@H]3OC(=O)Cc1ccc(OC)c(OC)c1
IC50 (MDA-MB-231): 1810 nM
IC50 (HCC1806): 2580 nM

SMILES: C=C1C(=O)[C@]23[C@H](OC(=O)C45CC6CC(CC(C6)C4)C5)[C@H]1CC[C@H]2[C@@]12CO[C@]3(O)[C@@H](O)[C@@H]1C(C)(C)CCC2=O
IC50 (MDA-MB-231): 1430 nM
IC50 (HCC1806): 1910 nM

SMILES: C=C1C(=O)[C@@]23C(=O)[C@@H]4OC[C@]5([C@@H](OC(C)=O)CCC(C)(C)[C@@H]45)[C@@H]2CC[C@@H]1[C@H]3OC(=O)C12CC3CC(CC(C3)C1)C2
IC50 (MDA-MB-231): 1410 nM
IC50 (HCC1806): 2390 nM

SMILES: C=C1C(=O)[C@]23[C@H](OC(=O)C45CC6CC(CC(C6)C4)C5)[C@H]1CC[C@H]2[C@@]12CO[C@]3(O)[C@@H](O)[C@@H]1C(C)(C)CC[C@@H]2OC(C)=O
IC50 (MDA-MB-231): 550 nM
IC50 (HCC1806): 1480 nM

SMILES: C=C1C(=O)[C@]23[C@H](OC(=O)Cc4cc(OC)c(OC)c(OC)c4)[C@H]1CC[C@H]2[C@@]12CO[C@]3(O)[C@@H](O)[C@@H]1C(C)(C)CCC2=O
IC50 (MDA-MB-231): > 10000 nM
IC50 (HCC1806): > 10000 nM

SMILES: C=C1C(=O)[C@]23[C@H](OC(=O)Cc4ccc(OC)c(OC)c4)[C@H]1CC[C@H]2[C@]12C=CCC(C)(C)[C@H]1[C@H](O)[C@@]3(O)OC2
IC50 (MDA-MB-231): > 10000 nM
IC50 (HCC1806): > 10000 nM
